Earlier results in US20260193295A1, “CILAGICIN COMPOUNDS AND METHODS OF USE THEREOF” (priority 2022, published 2026).
Values after ≈ are worked out from the molar mass of the structure shown. Read-outs that look alike come from different tables or passages of the source.

System: vancomycin-resistant Enterococci clinical isolates
Settings: cited from earlier work
[1] = Enterococci clinical isolate code 781
[2] = Enterococci clinical isolate code 782
[3] = Enterococci clinical isolate code 783
[4] = Enterococci clinical isolate code 784
[5] = Enterococci clinical isolate code 785
[6] = Enterococci clinical isolate code 786
[7] = Enterococci clinical isolate code 787
[8] = Enterococci clinical isolate code 788
[9] = Enterococci clinical isolate code 789
[10] = Enterococci clinical isolate code 790
[11] = Enterococci clinical isolate code 791
[12] = Enterococci clinical isolate code 792
[13] = Enterococci clinical isolate code 793
[14] = Enterococci clinical isolate code 794
[15] = Enterococci clinical isolate code 795
[16] = Enterococci clinical isolate code 796
[17] = Enterococci clinical isolate code 797
[18] = Enterococci clinical isolate code 798
[19] = Enterococci clinical isolate code 799
[20] = Enterococci clinical isolate code 800
[21] = Enterococci clinical isolate code 801
[22] = Enterococci clinical isolate code 802
[23] = Enterococci clinical isolate code 803
[24] = Enterococci clinical isolate code 804
[25] = Enterococci clinical isolate code 805
[26] = Enterococci clinical isolate code 806
[27] = Enterococci clinical isolate code 807
[28] = Enterococci clinical isolate code 808
[29] = Enterococci clinical isolate code 809
[30] = Enterococci clinical isolate code 810

Compound	MIC [1]	MIC [2]	MIC [3]	MIC [4]	MIC [5]	MIC [6]	MIC [7]	MIC [8]	MIC [9]	MIC [10]	MIC [11]	MIC [12]	MIC [13]	MIC [14]	MIC [15]	MIC [16]	MIC [17]	MIC [18]	MIC [19]	MIC [20]	other results
O=C(N[C@H](CO)[C@H](O)c1ccc([N+](=O)[O-])cc1)C(Cl)Cl [Chloramphenicol]	8 µg/mL (≈ 24.8 µM)	>32 µg/mL	16 µg/mL (≈ 49.5 µM)	4 µg/mL (≈ 12.4 µM)	>32 µg/mL	16 µg/mL (≈ 49.5 µM)	32 µg/mL (≈ 99 µM)	8 µg/mL (≈ 24.8 µM)	16 µg/mL (≈ 49.5 µM)	8 µg/mL (≈ 24.8 µM)	8 µg/mL (≈ 24.8 µM)	4 µg/mL (≈ 12.4 µM)	8 µg/mL (≈ 24.8 µM)	8 µg/mL (≈ 24.8 µM)	32 µg/mL (≈ 99 µM)	8 µg/mL (≈ 24.8 µM)	8 µg/mL (≈ 24.8 µM)	16 µg/mL (≈ 49.5 µM)	>32 µg/mL	16 µg/mL (≈ 49.5 µM)	MIC [21]: 8 µg/mL (≈ 24.8 µM); MIC [22]: 8 µg/mL (≈ 24.8 µM); MIC [23]: 8 µg/mL (≈ 24.8 µM); MIC [24]: >32 µg/mL; MIC [25]: 8 µg/mL (≈ 24.8 µM); MIC [26]: 8 µg/mL (≈ 24.8 µM); MIC [27]: 32 µg/mL (≈ 99 µM); MIC [28]: 8 µg/mL (≈ 24.8 µM); MIC [29]: 8 µg/mL (≈ 24.8 µM); MIC [30]: 8 µg/mL (≈ 24.8 µM)
Penicillin	2 µg/mL	2 µg/mL	>32 µg/mL	2 µg/mL	4 µg/mL	1 µg/mL	32 µg/mL	1 µg/mL	≤0.12 µg/mL	>32 µg/mL	2 µg/mL	>32 µg/mL	2 µg/mL	>32 µg/mL	4 µg/mL	2 µg/mL	0.5 µg/mL	1 µg/mL	2 µg/mL	2 µg/mL	MIC [21]: 1 µg/mL; MIC [22]: >32 µg/mL; MIC [23]: >32 µg/mL; MIC [24]: 4 µg/mL; MIC [25]: 2 µg/mL; MIC [26]: 8 µg/mL; MIC [27]: >32 µg/mL; MIC [28]: 2 µg/mL; MIC [29]: 1 µg/mL; MIC [30]: 2 µg/mL
CN[C@H](CC(C)C)C(=O)N[C@H]1C(=O)N[C@@H](CC(N)=O)C(=O)N[C@H]2C(=O)N[C@H]3C(=O)N[C@H](C(=O)N[C@H](C(=O)O)c4cc(O)cc(O)c4-c4cc3ccc4O)[C@H](O)c3ccc(c(Cl)c3)Oc3cc2cc(c3O[C@@H]2O[C@H](CO)[C@@H](O)[C@H](O)[C@H]2O[C@H]2C[C@](C)(N)[C@H](O)[C@H](C)O2)Oc2ccc(cc2Cl)[C@H]1O [Vancomycin]	>64 µg/mL	32 µg/mL (≈ 22.1 µM)	64 µg/mL (≈ 44.2 µM)	4 µg/mL (≈ 2.76 µM)	2 µg/mL (≈ 1.38 µM)	32 µg/mL (≈ 22.1 µM)	>64 µg/mL	2 µg/mL (≈ 1.38 µM)	>64 µg/mL	>64 µg/mL	0.5 µg/mL (≈ 0.345 µM)	>64 µg/mL	1 µg/mL (≈ 0.69 µM)	>64 µg/mL	32 µg/mL (≈ 22.1 µM)	8 µg/mL (≈ 5.52 µM)	2 µg/mL (≈ 1.38 µM)	2 µg/mL (≈ 1.38 µM)	>64 µg/mL	64 µg/mL (≈ 44.2 µM)	MIC [21]: 4 µg/mL (≈ 2.76 µM); MIC [22]: >64 µg/mL; MIC [23]: >64 µg/mL; MIC [24]: 16 µg/mL (≈ 11 µM); MIC [25]: 1 µg/mL (≈ 0.69 µM); MIC [26]: 0.5 µg/mL (≈ 0.345 µM); MIC [27]: >64 µg/mL; MIC [28]: 4 µg/mL (≈ 2.76 µM); MIC [29]: >64 µg/mL; MIC [30]: 1 µg/mL (≈ 0.69 µM)
